# Source: patent publication US9656962B2, “Ring-contracted morphinans and the use thereof” (Purdue Pharma L.P., priority 2013, dated 2017)
# How the values were obtained:
# [1] = target: T1, μ-opioid receptor (Homo sapiens (Human), UniProt P35372); assay: μ-opioid receptor radioligand binding assay ([3H]-diprenorphine); conditions: binding affinity
# Protocol: μ-Opioid Receptor Binding Assay Procedures: Radioligand dose-displacement binding assays for μ-opioid receptors used 0.3 nM [^3H]-diprenorphine (Perkin Elmer, Shelton, Conn.), with […] membrane protein/well in a final volume of 500 μl binding buffer (10 mM MgCl2, 1 mM EDTA, 5% DMSO, 50 mM HEPES, pH 7.4). Reactions were carried out in the absence or presence of increasing concentrations of unlabeled naloxone. All reactions were conducted in 96-deep well polypropylene plates for 2 hours at room temperature. Binding reactions were terminated by rapid filtration onto 96-well Unifilter GF/C filter plates (Perkin Elmer, Shelton, Conn.), presoaked in 0.5% polyethylenimine using a 96-well tissue harvester (Perkin Elmer, Shelton, Conn.) followed by performing three filtration washes with 500 μl of ice-cold binding buffer. Filter plates were subsequently dried at 50° C. for 2-3 hours. BetaScint scintillation cocktail (Perkin Elmer, Shelton, Conn.) was added (50 μl/well), and plates were counted using a Packard Top-Count for 1 min/well. The data were analyzed using the one-site competition curve fitting functions in GraphPad PRISM™ v. 3.0 or higher (San Diego, Calif.), or an in-house function for one-site competition curve-fitting.
# [2] = target: recombinant human kappa opioid receptor (κ) (Homo sapiens (Human), UniProt P41145); assay: κ-opioid receptor radioligand binding assay ([3H]-U69,593); conditions: binding affinity
# Protocol: κ-Opioid Receptor Binding Assay Procedures: Membranes from HEK-293 cells, CHO cells or U-2 OS cells expressing the recombinant human kappa opioid receptor (κ) were prepared by lysing cells in ice cold hypotonic buffer (2.5 mM MgCl2, 50 mM HEPES, pH 7.4) (10 mL/10 cm dish) followed by homogenization with a tissue grinder/Teflon pestle. Membranes from a cell line naturally expressing kappa opioid receptor can also be used. Membranes were collected by centrifugation at 30,000×g for 15 min at 4° C. and pellets were resuspended in hypotonic buffer to a final concentration of 1-3 mg/mL. Protein concentrations were determined using the BioRad protein assay reagent with bovine serum albumen as standard. Aliquots of κ receptor membranes were stored at −80° C.
# Radioligand dose displacement assays used 0.4 nM [^3H]-U69,593 (GE Healthcare, Piscataway, N.J.; 40 Ci/mmole) with 15 μg membrane protein (recombinant opioid receptor expressed in HEK 293 cells; in-house prep) in a final volume of 200 μl binding buffer (5% DMSO, 50 mM Trizma base, pH 7.4). Non-specific binding was determined in the presence of 10 μM unlabeled naloxone or U69,593. All reactions were performed in 96-well polypropylene plates for 1 hour at a temperature of about 25° C. Binding reactions were terminated by rapid filtration onto 96-well Unifilter GF/C filter plates (Perkin Elmer, Shelton, Conn.) presoaked in 0.5% polyethylenimine (Sigma). Harvesting was performed using a 96-well tissue harvester (Perkin Elmer, Shelton, Conn.) followed by five filtration washes with 200 μl ice-cold binding buffer. Filter plates were subsequently dried at 50° C. for 1-2 hours. Fifty μl/well scintillation cocktail (Perkin Elmer, Shelton, Conn.) was added and plates were counted in a Packard Top-Count for 1 min/well.
# [3] = target: T1, μ-opioid receptor; assay: μ-opioid receptor [35S]GTPγS functional assay, HEK-293 or CHO cells (Table 4); type: biochemical; conditions: for Emax: relative to DAMGO; for EC50: μ GTP
# In short: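 Membranes from HEK-293, CHO or U-2 OS cells (or commercial) expressing recombinant μ receptor; 0.20 nM [35S]GTPγS, 3 mM GDP, saponin, in 100 mM NaCl/10 mM MgCl2/20 mM HEPES pH 7.4.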
# [4] = target: T2, κ-opioid receptor (Homo sapiens (Human), UniProt P41145); assay: κ-opioid receptor [35S]GTPγS functional assay, HEK-293 or CHO cells (Table 4); type: biochemical; conditions: for Emax: relative to U69,593; for EC50: κ GTP
# Protocol: (§1) κ-Opioid Receptor Functional Assay Procedures: Functional [^35S]GTPγS binding assays were conducted as follows. κ opioid receptor membrane solution was prepared by sequentially adding final concentrations of 0.026 μg/μl κ membrane protein (in-house), 10 μg/mL saponin, 3 μM GDP and 0.20 nM [^35S]GTPγS to binding buffer (100 mM NaCl, 10 mM MgCl2, 20 mM HEPES, pH 7.4) on ice. The prepared membrane solution (190 μl/well) was transferred to 96-shallow well polypropylene plates containing 10 μl of 20× concentrated stock solutions of agonist prepared in DMSO. Plates were incubated for 30 min at a temperature of about 25° C. with shaking. Reactions were terminated by rapid filtration onto 96-well Unifilter GF/B filter plates (Perkin Elmer, Shelton, Conn.) using a 96-well tissue harvester (Packard) and followed by three filtration washes with 200 μl ice-cold binding buffer (10 mM NaH2PO4, 10 mM Na2HPO4, pH 7.4). Filter plates were subsequently dried at 50° C. for 2-3 hours. Fifty μl/well scintillation cocktail (Perkin Elmer, Shelton, Conn.) was added and plates were counted in a Packard Top-Count for 1 min/well.
# κ GTP Emax (%) is the maximal effect elicited by a compound relative to the effect elicited by U69,593.
# In TABLE 4, activity response of certain Compounds of the Invention to the μ- and κ-opioid receptors was determined as described above for functional assays using HEK-293 or CHO cells.
# [5] = target: T1, μ-opioid receptor; assay: μ-opioid receptor [35S]GTPγS functional assay, U-2 OS cells (Table 5); type: biochemical; conditions: for Emax: relative to DAMGO; for EC50: μ GTP
# In short: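 Membranes (0.026 mg/mL) from cells expressing recombinant human μ-opioid receptor in a U-2 OS background were incubated with 0.20 nM [35S]GTPγS, 3 mM GDP and saponin in 20 mM HEPES pH 7.4, 100 mM NaCl, 10 mM MgCl2 for 30 min at about 25 °C. Filter-bound radioactivity counted; sigmoidal dose-response fits gave values, Emax relative to DAMGO.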
# [6] = target: T2, κ-opioid receptor; assay: κ-opioid receptor [35S]GTPγS functional assay, U-2 OS cells (Table 5); type: biochemical; conditions: for Emax: relative to U69,593; for EC50: κ GTP
# In short: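 [35S]GTPγS binding in κ receptor membranes (0.026 μg/μl protein) with 10 μg/mL saponin, 3 μM GDP and 0.20 nM [35S]GTPγS in pH 7.4 HEPES/NaCl/MgCl2 buffer. Agonist incubation lasted 30 min at about 25 °C, followed by filtration and scintillation counting. Emax is expressed relative to U69,593.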
# [7] = target: δ-opioid receptor (Homo sapiens (Human), UniProt P41143); assay: δ-opioid receptor [35S]GTPγS functional assay (Table 4); type: biochemical
# Chain of δ-opioid receptor (P41143 whole entry, looked up): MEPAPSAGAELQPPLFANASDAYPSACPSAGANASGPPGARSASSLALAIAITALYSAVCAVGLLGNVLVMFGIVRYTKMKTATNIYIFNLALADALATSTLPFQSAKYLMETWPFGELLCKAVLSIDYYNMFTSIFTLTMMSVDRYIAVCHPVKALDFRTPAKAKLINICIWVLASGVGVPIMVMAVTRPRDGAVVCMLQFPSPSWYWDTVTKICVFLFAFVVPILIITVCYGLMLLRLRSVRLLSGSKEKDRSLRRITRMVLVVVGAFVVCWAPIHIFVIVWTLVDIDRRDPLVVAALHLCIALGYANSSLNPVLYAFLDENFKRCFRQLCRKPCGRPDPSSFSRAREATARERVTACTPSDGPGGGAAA
# Protocol: as §1, with “δ-Opioid” for “κ-Opioid”, “δ” for “κ”, “(Perkin Elmer, Shelton, Conn.),” for “(in-house),”, “shaking” for “shaking.”, “1-2” for “2-3”, “Top-count” for “Top-Count”
# δ GTP Emax (%) is the maximal effect elicited by a compound relative to the effect elicited by met-enkephalin.
Compound,Ki [1] [nM],Ki [2] [nM],Emax [3] [%],EC50 ([3]; bound given in μM) [µM],Emax [4] [%],EC50 [4] [nM],Emax [5] [%],EC50 [5] [nM],Emax [6] [%],EC50 [6] [nM],EC50 [3] [µM],Emax ([7]; relative to met-enkephalin) [%],EC50 ([7]; δ GTP) [nM]
"O=C(NCc1ccccc1)[C@@H]1C[C@]23CCN(CC4CC4)[C@H](Cc4ccc(O)cc42)[C@]3(O)C1 [Compound 33, (2R,3aS,4R,9bS)-N-benzyl-12-(cyclopropylmethyl)-3a,8-dihydroxy-1,2,3,3a,4,5-hexahydro-4,9b-(epiminoethano)cyclopenta[a]naphthalene-2-carboxamide]",1.39 ± 0.082,0.75 ± 0.13,1,> 20,43.3 ± 0.33,7.03 ± 0.82,45.7 ± 0.67,3.84 ± 0.21,103 ± 3.48,3.18 ± 0.46,–,–,–
"COC(=O)[C@@H]1C[C@]23CCN(CC4CC4)[C@H](Cc4ccc(O)cc42)[C@]3(O)C1 [Compound 12, (2R,3aS,4R,9bS)-methyl-12-(cyclopropylmethyl)-3a,8-dihydroxy-1,2,3,3a,4,5-hexahydro-4,9b-(epimino-ethano)cyclopenta[a]naphthalene-2-carboxylate]",0.53 ± 0.076,0.3 ± 0.056,1,> 20,82.7 ± 1.2,2.95 ± 1.06,55.6 ± 3.83,1.22 ± 0.27,108 ± 3.51,1.7 ± 0.26,–,–,–
"O=C(NCc1ccccc1)[C@H]1C[C@]23CCN(CC4CC4)[C@H](Cc4ccc(O)cc42)[C@]3(O)C1 [Compound 34, (2S,3aS,4R,9bS)-N-benzyl-12-(cyclopropylmethyl)-3a,8-dihydroxy-1,2,3,3a,4,5-hexahydro-4,9b-(epiminoethano)cyclopenta[a]naphthalene-2-carboxamide]",–,0.083 ± 0.014,40 ± 1.53,–,102 ± 2.73,0.094 ± 0.011,94 ± 0.58,0.25 ± 0.027,93.3 ± 3.18,0.02,0.00375 ± 0.00066,–,–
"Cc1ccc(CNC(=O)[C@H]2C[C@]34CCN(CC5CC5)[C@H](Cc5ccc(O)cc53)[C@]4(O)C2)cc1 [Compound 38, (2S,3aS,4R,9bS)-12-(cyclopropylmethyl)-3a,8-dihydroxy-N-(4-methylbenzyl)-1,2,3,3a,4,5-hexahydro-4,9b-(epiminoethano)cyclopenta[a]naphthalene-2-carboxamide]",–,0.16 ± 0.044,56.5 ± 2.6,–,96.3 ± 3.18,0.43 ± 0.048,77.7 ± 2.4,0.25 ± 0.024,105 ± 3.18,0.065 ± 0.01,0.00062 ± 0.00012,50.1 ± 1.25,1.56 ± 0.055
"O=C(O)[C@@H]1C[C@]23CCN(CC4CC4)[C@H](Cc4ccc(O)cc42)[C@]3(O)C1 [Compound 16, (2R,3aS,4R,9bS)-12-(cyclopropylmethyl)-3a,8-dihydroxy-1,2,3,3a,4,5-hexahydro-4,9b-(epiminoethano)-cyclopenta-[a]naphthalene-2-carboxylic acid]",55.6 ± 11,17.3 ± 6.19,1,> 20,38 ± 2.04,12.4 ± 3.66,31.8 ± 3.07,4.75 ± 0.62,90.7 ± 5.81,13.2 ± 1.86,–,–,–
"N=C(N)NCCCCNC(=O)[C@@H]1C[C@]23CCN(CC4CC4)[C@H](Cc4ccc(O)cc42)[C@]3(O)C1 [Compound 7, (2R,3aS,4R,9bS)-12-(cyclopropylmethyl)-N-(4-guanidinobutyl)-3a,8-dibydroxy-1,2,3,3a,4,5-hexahydro-4,9b-(epimino-ethano)cyclopenta[a]naphthalene-2-carboxamide]",23.6 ± 5.56,0.13 ± 0.018,1,> 20,57.5 ± 1.66,0.8 ± 0.26,56.3 ± 2.6,8.94 ± 1.31,101 ± 3.67,1.16 ± 0.16,–,–,–
"O=C(NCc1ccc(O)cc1O)[C@H]1C[C@]23CCN(CC4CC4)[C@H](Cc4ccc(O)cc42)[C@]3(O)C1 [Compound 42, (2S,3aS,4R,9bS)-12-(cyclopropylmethyl)-N-(2,4-dihydroxybenzyl)-3a,8-dihydroxy-1,2,3,3a,4,5-hexahydro-4,9b-(epimino-ethano)cyclopenta[a]naphthalene-2-carboxamide]",0.4 ± 0.024,0.37 ± 0.13,1,> 20,98.3 ± 1.33,0.32 ± 0.059,35 ± 1.15,1.33 ± 0.12,87.7 ± 4.63,1.27 ± 0.076,–,–,–
"COc1ccc2c(c1)[C@]13CCN(CC4CC4)[C@H](C2)[C@]1(O)C[C@H](C(N)=O)C3 [Compound 11, (2R,3aS,4R,9bS)-12-(cyclopropylmethyl)-3a-hydroxy-8-methoxy-1,2,3,3a,4,5-hexahydro-4,9b-(epiminoethano)cyclo-penta[a]naphthalene-2-carboxamide]",2980 ± 466,182 ± 29.2,–,–,–,–,–,–,103 ± 1.67,1360 ± 49.8,–,–,–
